The values below come from US8263632B2, “Aminopyridine derivatives having Aurora A selective inhibitory action” (Vertex Pharmaceuticals Incoporated, priority 2009, dated 2012).

One test concerns the target T1, Aurora A (Homo sapiens, UniProt O14965).
T1 construct: histidine tag (N); made in house; host or cells: Escherichia coli BL21-CodonPlus(DE3)-RIL
T1 sequence (O14965 1-403): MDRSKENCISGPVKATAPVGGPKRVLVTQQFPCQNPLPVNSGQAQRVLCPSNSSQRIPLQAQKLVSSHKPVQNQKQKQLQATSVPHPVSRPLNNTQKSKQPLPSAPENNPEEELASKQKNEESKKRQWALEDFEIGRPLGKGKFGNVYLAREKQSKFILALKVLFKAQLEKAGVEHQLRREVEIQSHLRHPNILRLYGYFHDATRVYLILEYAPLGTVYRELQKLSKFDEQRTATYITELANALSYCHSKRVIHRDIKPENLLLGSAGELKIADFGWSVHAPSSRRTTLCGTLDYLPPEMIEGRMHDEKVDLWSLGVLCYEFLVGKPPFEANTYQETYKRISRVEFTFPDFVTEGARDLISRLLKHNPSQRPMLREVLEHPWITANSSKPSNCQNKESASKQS
Put plainly: Aurora A inhibitory action (33P-ATP kinase assay, Kemptide substrate). It counts as biochemical. On the procedure:
The Escherichia coli cells were recovered and solubilized, and then the histidine-tagged Aurora A protein was adsorbed onto a nickel chelate column and eluted from the column with imidazole. The active fraction was desalted with a desalting column to give a pure enzyme.
Then, 10 μL of 350 mM phosphate buffer was added to the reaction system to stop the reaction. The substrate peptide was adsorbed on a P81 paper filter 96-well plate and then washed with 130 mM phosphate buffer for several times. The radiation activity of the peptide was measured with a liquid scintillation counter. The [γ-^33P] labeled ATP was purchased from Amersham Biosciences Co., Ltd.

Another test deals with T2, Aurora B (Homo sapiens, UniProt Q96GD4).
T2 construct: histidine tag (N); made in house; host or cells: Escherichia coli BL21-CodonPlus(DE3)-RIL
Kind of test: Aurora B inhibitory action (33P-ATP kinase assay, Kemptide substrate). The test is classed as biochemical. Conditions: 100 μM unlabeled ATP, 100 μM substrate peptide, 30° C. for 20 minutes. The text has this: Aurora B Inhibitory Action
(1) Purification of Aurora B
cDNA of Aurora B having histidine tag fused at the amino terminal was integrated into an expression vector, which was then highly expressed in Escherichia coli BL21-CodonPlus(DE3)-RIL cells. The Escherichia coli cells were recovered and solubilized, and then the histidine-tagged […] protein was adsorbed onto a nickel chelate column and eluted from the column with imidazole. The active fraction was desalted with a desalting column to give a pure enzyme.
(2) Measurement of activity of Aurora B
For measurement of the activity of Aurora B, the substrate used was Kemptide (Leu-Arg-Arg-Ala-Ser-Leu-Gly) (SEQ. ID. NO.: 1), a synthetic peptide purchased from Sigma-Aldrich, Inc. [Certificate of analysis (Upstate, Inc.)].
Reaction was conducted by a partial modification of the method of activity measurement for Aurora A. The amount of the reaction liquid was 21.1 μL, and the composition of the reaction buffer (R2 buffer) was 50 mM Tris-hydrochloride buffer (pH 7.4)/15 mM magnesium acetate/0.2 mM ethylenediamine-N,N,N′,N′-tetraacetate (EDTA). To this, purified Aurora B, 100 μM of a substrate peptide, 100 μM of unlabeled adenosine triphosphate (ATP) and 1 μCi of [γ-^33P] labeled ATP (2,500 Ci/mmole or more) were added, and the mixture was reacted at 30° C. for 20 minutes. Then, 10 μL of 350 mM phosphate buffer was added to the reaction system to stop the reaction. The substrate peptide was adsorbed on a P81 paper filter 96-well plate and then washed with 130 mM phosphate buffer for several times. The radiation activity of the peptide was measured with a liquid scintillation counter. The [γ-^33P] labeled ATP was purchased from Amersham Biosciences Co., Ltd.

The mark [1] stands for this setting: 20 μM unlabeled ATP, 100 μM substrate peptide, 30° C. for 20 minutes, read-out: Inhibitory activity for Aurora A (IC50).

Like-named read-outs stand apart in the source and are kept apart here.

T2 sequence (Q96GD4 whole entry): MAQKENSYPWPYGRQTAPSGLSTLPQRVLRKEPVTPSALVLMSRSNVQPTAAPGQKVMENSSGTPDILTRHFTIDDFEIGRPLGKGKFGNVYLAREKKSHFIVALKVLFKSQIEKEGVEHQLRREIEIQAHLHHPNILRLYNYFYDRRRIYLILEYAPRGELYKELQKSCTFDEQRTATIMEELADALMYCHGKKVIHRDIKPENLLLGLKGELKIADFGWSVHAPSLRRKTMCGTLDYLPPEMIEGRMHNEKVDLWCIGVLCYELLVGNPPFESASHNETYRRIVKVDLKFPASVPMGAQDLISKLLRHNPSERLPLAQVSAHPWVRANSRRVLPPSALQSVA

As for `CO[C@@]12CCN(C(=O)O[C@@H](C)C(F)(F)F)[C@@H]1CN(c1nc(C)cc(Nc3cc[nH]n3)n1)C2` [Example 1, (2S)-1,1,1-trifluoropropan-2-yl (3aR,6aR)-3a-metboxy-5-[4-methyl-6-(1H-pyrazol-3-ylamino)pyrimidin-2-yl]hexahydropyrrolo[3,4-b]pyrrole-1(2H)-carboxylate], the IC50 on Aurora A stood at 2.3 nM; at Aurora B, 730 nM.
Turning to `Cc1cc(Nc2cc[nH]n2)nc(N2C[C@@H]3[C@@H](C2)OCCN3C(=O)O[C@@H](C)C(F)(F)F)n1` [Example 2, (2S)-1,1,1-trifluoropropan-2-yl (4aR,7aR)-6-[4-methyl-6-(1H-pyrazol-3-ylamino)pyrimidin-2-yl]hexahydropyrrolo[3,4-b][1,4]oxazine-4(4aH)-carboxylate], the IC50 at Aurora A (setting [1]) is 1.3 nM; at Aurora B, 85 nM.
For `Cc1cc(Nc2cc[nH]n2)nc(N2C[C@@H]3[C@@H](C2)OCCN3C(=O)OC(C)(C)C(F)(F)F)n1` [Example 3, 1,1,1-trifluoro-2-methylpropan-2-yl (4aR,7aR)-6-[4-methyl-6-(1H-pyrazol-3-ylamino)pyrimidin-2-yl]hexahydropyrrolo[3,4-b][1,4]oxazine-4(4aH)-carboxylate] the same measures were 5.4 nM and 870 nM.

By IC50 is commonly meant the concentration at which inhibition is half-maximal.
